The values that follow come from patent US12384787B2, “Fused heterocyclic compounds and their use as pest control agents” (PI INDUSTRIES LTD., priority 2019, dated 2025).

Common to all, as to format: in vivo
One experiment deals with Helicoverpa armigera. Kind of experiment: Helicoverpa armigera diet incorporation method. Conditions: third instar larvae, 96 h after release, dead and moribund combined, compared to untreated control, read-out: Percent mortality. How it is done:
Diet incorporation method was used, in which the required quantity of test compounds were weighed and dissolved in a surfactant solution, kept on vortex for 90 min for proper mixing, then was diluted with water to the desired test concentrations. The solutions were incorporated into semi-synthetic diet when the temperature reached approximately 50° C. in the bioassay containers. The diet and solution was stirred thoroughly for properly mixing and then left to cool for 30 min. The solidified diet was cut into equal pieces, and then each piece was transferred into one cell of the bio-assay trays. A single third starved instar larva was released into each of these cells of the bioassay trays and each tray was covered with a lid. The bio-assay trays were kept under laboratory conditions at a temperature of 25° C. and relative humidity of 70%. Observations on dead, moribund and alive larvae were recorded at 96 h after the release of the larvae. Percent mortality was calculated by combining dead and moribund larvae and comparing the result to the one of the untreated control.

The subject of a further experiment is Spodoptera litura. Description: Spodoptera litura diet incorporation method. Conditions: third instar larvae, 96 h after release, dead and moribund combined, compared to untreated control, read-out: Percent mortality. How it is done: Diet incorporation method was used, in which the required quantity of test compounds were weighed and dissolved in surfactant solution, kept on vortex for 90 min for proper mixing, then diluted with water to the desired test concentrations. The solutions were incorporated into semi-synthetic diet when the temperature reached approximately 50° C. in the bioassay containers. The diet and solution was stirred thoroughly for properly mixing and was left to cool for 30 min. The solidified diet was cut into equal pieces, and then each piece was transferred into one cell of the bio-assay trays. A single starved third instar larva was released into each of these cells of the bioassay trays and the tray was covered with a lid. The bio-assay trays were kept under laboratory conditions at a temperature of 25° C. and relative humidity of 70%. Observations on dead, moribund and alive larvae were recorded at 96 h after the release of the larvae. Percent mortality was calculated by combining dead and moribund larvae and comparing the result to the one of the untreated control.

The test system of a further experiment is Plutella xylostella. Kind of experiment: Plutella xylostella leaf dip method (cabbage leaves). Conditions: foliar, second instar larvae, 72 h after release, dead and moribund combined, compared to untreated control, read-out: Percent mortality. How it is done:
The leaf dip method was used for testing, wherein the required quantity of the compounds were weighed and dissolved in a surfactant solution, kept on a Vortex at 2000 rpm with zirconia beads for 90 min for proper mixing and then diluted with 0.01% Triton-X solution to the desired test concentration. Cabbage leaves were dipped in the solution for 10 seconds, shade dried for 20 min and then transferred to bioassay trays. A single second instar larva was released into each bioassay tray cell and the tray was covered with a lid. The bio-assay trays were kept under laboratory conditions at a temperature of 25° C. and relative humidity of 70%. Observations on dead, moribund and living larvae were recorded at 72 h after the release. Percent mortality was calculated by combining dead and moribund larvae and comparing the result to the one of the untreated control.

As usually defined, the mortality is the share of the test organisms that died. Regarding `CCS(=O)(=O)c1nn2c(C)cc(C)nc2c1-c1nc2cc(S(=O)(=O)C(F)(F)F)ccc2o1` [Compound 15, 2-(2-(Ethylsulfonyl)-5,7-dimethylpyrazolo[1,5-a]pyrimidin-3-yl)-5-((trifluoromethyl)sulfonyl)benzo[d]oxazole], the mortality at 300 ppm with Helicoverpa armigera, in the experiment on Spodoptera litura and in the experiment on Plutella xylostella was more than 70% each time. Take `CCS(=O)(=O)c1nn2c(-c3ccc(F)cc3)ccnc2c1-c1nc2cc(C(F)(F)F)ncc2n1C` [Compound 21, 2-(2-(Ethylsulfonyl)-7-(4-fluorophenyl)pyrazolo[1,5-a]pyrimidin-3-yl)-3-methyl-6-(trifluoromethyl)-3H-imidazo[4,5-c]pyridine]: the mortality at 300 ppm in the experiment on Helicoverpa armigera, in the experiment on Spodoptera litura and with Plutella xylostella was more than 70% in each case.

`CCS(=O)(=O)c1nn2c(-c3ccc(F)cc3)ccnc2c1-c1nc2cc(C(F)(F)F)cnc2n1C` [Compound 25, 2-(2-(Ethylsulfonyl)-7-(4-fluorophenyl)pyrazolo[1,5-a]pyrimidin-3-yl)-3-methyl-6-(trifluoromethyl)-3H-imidazo[4,5-b]pyridine]: the mortality at 300 ppm with Helicoverpa armigera, with Spodoptera litura and in the experiment with Plutella xylostella was more than 70% in each case.

Turning to `CCSc1nn2c(-c3ccc(OC(F)(F)F)cc3)ccnc2c1-c1nc2cc(C(F)(F)F)ncc2n1C` [Compound 28, 2-(2-(Ethylthio)-7-(4-(trifluoromethoxy)phenyl)pyrazolo[1,5-a]pyrimidin-3-yl)-3-methyl-6-(trifluoromethyl)-3H-imidazo[4,5-c]pyridine], the mortality at 300 ppm with Helicoverpa armigera and in the experiment with Plutella xylostella was more than 70% in each case. As for `CCS(=O)(=O)c1nn2c(-c3ccc(OC(F)(F)F)cc3)ccnc2c1-c1nc2cc(S(=O)(=O)C(F)(F)F)ccc2o1` [Compound 32, 2-(2-(Ethylsulfonyl)-7-(4-(trifluoromethoxy)phenyl)pyrazolo[1,5-a]pyrimidin-3-yl)-5-((trifluoromethyl)sulfonyl)benzo[d]oxazole], the mortality at 300 ppm in the experiment with Helicoverpa armigera and with Plutella xylostella was more than 70% throughout.

As for `CCS(=O)(=O)c1nn2c(-c3ccc(Cl)cc3)ccnc2c1-c1nc2cc(C(F)(F)F)ncc2n1C` [Compound 37, 2-(7-(4-Chlorophenyl)-2-(ethylsulfonyl)pyrazolo[1,5-a]pyrimidin-3-yl)-3-methyl-6-(trifluoromethyl)-3H-imidazo[4,5-c]pyridine], the mortality at 300 ppm with Spodoptera litura and with Plutella xylostella was more than 70% throughout. Take `CCS(=O)(=O)c1nn2c(-c3ccc(Cl)cc3)ccnc2c1-c1nc2cc(C(F)(F)F)cnc2n1C` [Compound 39, 2-(7-(4-Chlorophenyl)-2-(ethylsulfonyl)pyrazolo[1,5-a]pyrimidin-3-yl)-3-methyl-6-(trifluoromethyl)-3H-imidazo[4,5-b]pyridine]: the mortality at 300 ppm with Helicoverpa armigera and with Plutella xylostella was more than 70% each time.

Turning to `CCS(=O)(=O)c1nn2c(-c3ccc(OC(F)(F)C(F)F)cc3)ccnc2c1-c1nc2cc(C(F)(F)F)ncc2n1C` [Compound 91, 2-(2-(Ethylsulfonyl)-7-(4-(1,1,2,2-tetrafluoroethoxy)phenyl)pyrazolo[1,5-a]pyrimidin-3-yl)-3-methyl-6-(trifluoromethyl)-3H-imidazo[4,5-c]pyridine], the mortality at 300 ppm with Helicoverpa armigera and in the experiment on Plutella xylostella was more than 70% each time. For the molecule `CCSc1nn2c(-c3cccc(Cl)c3)ccnc2c1-c1nc2cc(C(F)(F)F)cnc2n1C` [Compound 97, 2-(7-(3-Chlorophenyl)-2-(ethylthio)pyrazolo[1,5-a]pyrimidin-3-yl)-3-methyl-6-(trifluoromethyl)-3H-imidazo[4,5-b]pyridine], the mortality at 300 ppm with Helicoverpa armigera is more than 70%. On to `CCS(=O)(=O)c1nn2c(-c3cccc(Cl)c3)ccnc2c1-c1nc2cc(C(F)(F)F)cnc2n1C` [Compound 99, 2-(7-(3-Chlorophenyl)-2-(ethylsulfonyl)pyrazolo[1,5-a]pyrimidin-3-yl)-3-methyl-6-(trifluoromethyl)-3H-imidazo[4,5-b]pyridine], for which the mortality at 300 ppm in the experiment on Helicoverpa armigera and in the experiment on Plutella xylostella was more than 70% each time. As to `CCSc1nn2c(-c3cc(F)cc(Cl)c3)ccnc2c1-c1nc2cc(C(F)(F)F)cnc2n1C` [Compound 102, 2-(7-(3-Chloro-5-fluorophenyl)-2-(ethylthio)pyrazolo[1,5-a]pyrimidin-3-yl)-3-methyl-6-(trifluoromethyl)-3H-imidazo[4,5-b]pyridine], the mortality at 300 ppm in the experiment with Helicoverpa armigera was more than 70%. Take `CCS(=O)(=O)c1nn2cc(-c3ccc(OC(F)(F)C(F)F)cc3)cnc2c1-c1nc2cc(C(F)(F)F)ncc2n1C` [Compound 109, 2-(2-(Ethylsulfonyl)-6-(4-(1,1,2,2-tetrafluoroethoxy)phenyl)pyrazolo[1,5-a]pyrimidin-3-yl)-3-methyl-6-(trifluoromethyl)-3H-imidazo[4,5-c]pyridine]: the mortality at 300 ppm in the experiment with Helicoverpa armigera and in the experiment on Plutella xylostella was more than 70% throughout. For `CCSc1nn2c(-c3ccc(Cl)cc3Cl)ccnc2c1-c1nc2cc(C(F)(F)F)cnc2n1C` [Compound 120, 2-(7-(2,4-Dichlorophenyl)-2-(ethylthio)pyrazolo[1,5-a]pyrimidin-3-yl)-3-methyl-6-(trifluoromethyl)-3H-imidazo[4,5-b]pyridine], in the experiment with Helicoverpa armigera, the mortality at 300 ppm is more than 70%.

As to `CCSc1nn2c(-c3cccc(C(F)(F)F)c3)ccnc2c1-c1nc2cc(C(F)(F)F)cnc2n1C` [Compound 126, 2-(2-(Ethylthio)-7-(3-(trifluoromethyl)phenyl)pyrazolo[1,5-a]pyrimidin-3-yl)-3-methyl-6-(trifluoromethyl)-3H-imidazo[4,5-b]pyridine], the mortality at 300 ppm with Helicoverpa armigera and in the experiment on Spodoptera litura was more than 70% throughout. Turning to `CCS(=O)(=O)c1nn2c(-c3cccc(C(F)(F)F)c3)ccnc2c1-c1nc2cc(C(F)(F)F)cnc2n1C` [Compound 129, 2-(2-(ethylsulfonyl)-7-(3-(trifluoromethyl)phenyl)pyrazolo[1,5-a]pyrimidin-3-yl)-3-methyl-6-(trifluoromethyl)-3H-imidazo[4,5-b]pyridine], the mortality at 300 ppm in the experiment with Spodoptera litura and in the experiment on Plutella xylostella was more than 70% in each case. On to `CCS(=O)(=O)c1nn2c(-c3cccc(F)c3)ccnc2c1-c1nc2cc(C(F)(F)F)cnc2n1C` [Compound 130, 2-(2-(Ethylsulfonyl)-7-(3-fluorophenyl)pyrazolo[1,5-a]pyrimidin-3-yl)-3-methyl-6-(trifluoromethyl)-3H-imidazo[4,5-b]pyridine], for which, in the experiment with Plutella xylostella, the mortality at 300 ppm was more than 70%. Same read-out and setting: in the case of `CCS(=O)(=O)c1nn2c(C)ccnc2c1-c1nc2cc(C(F)(F)F)cnc2n1C` [Compound 133, 2-(2-(Ethylsulfonyl)-7-methylpyrazolo[1,5-a]pyrimidin-3-yl)-3-methyl-6-(trifluoromethyl)-3H-imidazo[4,5-b]pyridine] it was more than 70%. As for `CCSc1nn2c(-c3cccc(C(F)(F)F)c3)ccnc2c1-c1nc2cc(C(F)(F)F)ncc2n1C` [Compound 134, 2-(2-(Ethylthio)-7-(3-(trifluoromethyl)phenyl)pyrazolo[1,5-a]pyrimidin-3-yl)-3-methyl-6-(trifluoromethyl)-3H-imidazo[4,5-c]pyridine], the mortality at 300 ppm in the experiment on Spodoptera litura was more than 70%.

As to `CCS(=N)(=O)c1nn2c(-c3cc(Cl)cc(Cl)c3)ccnc2c1-c1nc2cc(C(F)(F)F)cnc2n1C` (stereo not shown) [Compound 135, (7-(3,5-Dichlorophenyl)-3-(3-methyl-6-(trifluoromethyl)-3H-imidazo[4,5-b]pyridin-2-yl)pyrazolo[1,5-a]pyrimidin-2-yl)(ethyl)(imino)-λ^6-sulfanone], the mortality at 300 ppm in the experiment with Plutella xylostella is more than 70%. As for `CCS(=O)(=O)c1nn2c(-c3cccc(C(F)(F)F)c3)ccnc2c1-c1nc2cc(C(F)(F)F)ncc2n1C` [Compound 136, 2-(2-(Ethylsulfonyl)-7-(3-(trifluoromethyl)phenyl)pyrazolo[1,5-a]pyrimidin-3-yl)-3-methyl-6-(trifluoromethyl)-3H-imidazo[4,5-c]pyridine], the mortality at 300 ppm with Helicoverpa armigera and with Plutella xylostella was more than 70% in each case. Regarding `CCS(=O)(=O)c1nn2c(-c3cccc(F)c3)ccnc2c1-c1nc2cc(C(F)(F)F)ncc2n1C` [Compound 137, 2-(2-(Ethylsulfonyl)-7-(3-fluorophenyl)pyrazolo[1,5-a]pyrimidin-3-yl)-3-methyl-6-(trifluoromethyl)-3H-imidazo[4,5-c]pyridine], the mortality at 300 ppm in the experiment with Plutella xylostella is more than 70%.
